This assay addresses factor B (Homo sapiens, UniProt P00751). As to the kind of experiment: factor B inhibition assay of Biological Example 1. It counts as biochemical. The arrangement: CVF-Bb complex prepared from purified cobra venom factor (1 μM), recombinant human complement factor B; made in house; host or cells: drosophila cells (factor B); E. coli (factor D used to form the complex). The settings on record: IC50 (nM), assay of Biological Example 1 (Table 1).

factor B, sequence (P00751 260-764 limits assumed): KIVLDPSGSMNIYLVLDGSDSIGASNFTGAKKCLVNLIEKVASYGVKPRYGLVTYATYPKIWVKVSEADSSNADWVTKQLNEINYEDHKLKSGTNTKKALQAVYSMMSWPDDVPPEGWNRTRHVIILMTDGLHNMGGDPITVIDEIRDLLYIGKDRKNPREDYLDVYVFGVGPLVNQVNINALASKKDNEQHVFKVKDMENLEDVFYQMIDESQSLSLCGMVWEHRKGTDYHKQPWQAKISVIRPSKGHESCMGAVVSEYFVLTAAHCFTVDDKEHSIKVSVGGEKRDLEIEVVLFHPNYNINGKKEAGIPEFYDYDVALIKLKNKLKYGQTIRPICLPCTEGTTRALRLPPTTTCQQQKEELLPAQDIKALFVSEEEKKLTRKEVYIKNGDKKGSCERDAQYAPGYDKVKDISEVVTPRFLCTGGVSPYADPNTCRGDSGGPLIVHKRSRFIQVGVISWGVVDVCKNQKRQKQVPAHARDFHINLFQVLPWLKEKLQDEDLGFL
factor B, sequence (Q91132 23-649 partner limits assumed): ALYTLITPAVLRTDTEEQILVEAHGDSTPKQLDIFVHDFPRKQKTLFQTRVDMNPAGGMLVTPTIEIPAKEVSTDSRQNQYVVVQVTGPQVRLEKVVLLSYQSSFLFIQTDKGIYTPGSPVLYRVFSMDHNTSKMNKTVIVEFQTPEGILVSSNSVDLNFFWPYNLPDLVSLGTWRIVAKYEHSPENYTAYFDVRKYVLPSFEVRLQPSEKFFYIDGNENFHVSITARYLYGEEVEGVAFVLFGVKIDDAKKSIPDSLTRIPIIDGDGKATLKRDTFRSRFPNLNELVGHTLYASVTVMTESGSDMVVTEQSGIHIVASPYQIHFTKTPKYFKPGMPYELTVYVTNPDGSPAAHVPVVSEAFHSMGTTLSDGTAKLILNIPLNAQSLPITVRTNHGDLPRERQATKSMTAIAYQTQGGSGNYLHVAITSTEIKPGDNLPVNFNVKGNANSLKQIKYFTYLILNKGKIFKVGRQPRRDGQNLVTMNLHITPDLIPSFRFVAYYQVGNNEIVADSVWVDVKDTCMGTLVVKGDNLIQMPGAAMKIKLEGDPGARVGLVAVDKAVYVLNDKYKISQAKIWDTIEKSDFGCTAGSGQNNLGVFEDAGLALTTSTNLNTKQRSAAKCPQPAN
factor B, sequence (Q91132 733-984 partner limits assumed): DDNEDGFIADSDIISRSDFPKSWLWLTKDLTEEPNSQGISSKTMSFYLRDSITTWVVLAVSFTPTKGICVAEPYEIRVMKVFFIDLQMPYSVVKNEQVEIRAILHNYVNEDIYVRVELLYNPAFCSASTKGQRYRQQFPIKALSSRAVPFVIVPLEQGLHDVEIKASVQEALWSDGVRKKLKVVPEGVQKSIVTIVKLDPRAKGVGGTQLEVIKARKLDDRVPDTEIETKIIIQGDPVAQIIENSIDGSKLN
factor B, sequence (Q91132 1264-1642 partner limits assumed): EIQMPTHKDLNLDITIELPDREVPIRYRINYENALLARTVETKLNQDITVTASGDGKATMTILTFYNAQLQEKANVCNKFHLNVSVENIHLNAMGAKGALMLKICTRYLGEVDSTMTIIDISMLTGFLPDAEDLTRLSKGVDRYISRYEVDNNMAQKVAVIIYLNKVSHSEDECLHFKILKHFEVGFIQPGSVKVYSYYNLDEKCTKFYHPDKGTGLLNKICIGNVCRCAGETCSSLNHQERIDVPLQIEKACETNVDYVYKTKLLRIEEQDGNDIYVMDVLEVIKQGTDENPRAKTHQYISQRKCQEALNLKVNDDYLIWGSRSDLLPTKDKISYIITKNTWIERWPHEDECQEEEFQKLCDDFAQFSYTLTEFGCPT

As to `Cc1cc(OC(F)F)c(C(NCCN)c2nc3cc(C#N)ccc3[nH]2)c2cc[nH]c12` (racemic) [3-B a) 2nd compound, (±)-2-(((2-aminoethyl)amino)(5-(difluoromethoxy)-7-methyl-1H-indol-4-yl)methyl)-1H-benzo[d]imidazole-5-carbonitrile], the IC50 (usually the concentration needed to halve the response being measured) is 2700 nM.

With `Cc1cc(OC(F)F)c(C(C)(O)c2nc3cc(C#N)ccc3[nH]2)c2cc[nH]c12` (racemic) [6-B b) (+), (+)-2-(1-(5-(difluoromethoxy)-7-methyl-1H-indol-4-yl)-1-hydroxyethyl)-1H-benzo[d]imidazole-5-carbonitrile], the IC50 was 140 nM.

Regarding `Cc1cc(OC(F)F)c(C(C)(O)c2nc3cc(C#N)ccc3[nH]2)c2cc[nH]c12` (racemic) [6-B b) (−), (−)-2-(1-(5-(difluoromethoxy)-7-methyl-1H-indol-4-yl)-1-hydroxyethyl)-1H-benzo[d]imidazole-5-carbonitrile], the IC50 came to 110 nM.

In the case of `COc1cc(C)c2[nH]ccc2c1C(C)(O)c1nc2cc(C#N)ccc2[nH]1` (racemic) [26-C b) (+), (+)-2-(1-hydroxy-1-(5-methoxy-7-methyl-1H-indol-4-yl)ethyl)-1H-benzo[d]imidazole-5-carbonitrile], the IC50 is 50 nM.

As to `COc1cc(C)c2[nH]ccc2c1C(C)(O)c1nc2cc(C#N)ccc2[nH]1` (racemic) [26-C b) (−), (−)-2-(1-hydroxy-1-(5-methoxy-7-methyl-1H-indol-4-yl)ethyl)-1H-benzo[d]imidazole-5-carbonitrile], the IC50 was found to be 80 nM.

With `COc1cc(C)c2[nH]ccc2c1C(OC)c1nc2cc(C#N)ccc2[nH]1` (racemic) [30-B b) (+), (+)-2-(methoxy(5-methoxy-7-methyl-1H-indol-4-yl)methyl)-1H-benzo[d]imidazole-5-carbonitrile], the half-inhibitory concentration (IC50) came to 220 nM.

Consider `COc1cc(C)c2[nH]ccc2c1C(OC)c1nc2cc(C#N)ccc2[nH]1` (racemic) [30-B b) (−), (−)-2-(methoxy(5-methoxy-7-methyl-1H-indol-4-yl)methyl)-1H-benzo[d]imidazole-5-carbonitrile], for which the IC50 stood at 160 nM.

`COC(=O)COC(c1nc2cc(C#N)ccc2[nH]1)(c1c(OC)cc(C)c2[nH]ccc12)C(F)(F)F` (racemic) [35-B a), (±)-Methyl 2-(1-(5-cyano-1H-benzo[d]imidazol-2-yl)-2,2,2-trifluoro-1-(5-methoxy-7-methyl-1H-indol-4-yl)ethoxy)acetate]: the IC50 came out at 70 nM.

Consider `COc1cc(C)c2[nH]ccc2c1C(N)(c1nc2cc(C#N)ccc2[nH]1)C(F)(F)F` (racemic) [36-E b) (+), (+)-2-(1-amino-2,2,2-trifluoro-1-(5-methoxy-7-methyl-1H-indol-4-yl)ethyl)-1H-benzo[d]imidazole-5-carbonitrile], for which the IC50 was 50 nM.

As for `CCCc1cc(C)c2[nH]ccc2c1C(C)(O)c1nc2cc(C#N)ccc2[nH]1` (racemic) [79-B a) 2nd compound, (±)-2-(1-hydroxy-1-(7-methyl-5-propyl-1H-indol-4-yl)ethyl)-1H-benzo[d]imidazole-5-carbonitrile], the IC50 came out at 150 nM.

`Cc1cc(C)c2[nH]ccc2c1C(C)(N)c1nc2cc(C#N)ccc2[nH]1` (racemic) [101-E b) (+), (+)-2-(1-amino-1-(5,7-dimethyl-1H-indol-4-yl)ethyl)benzo[d]imidazole-5-carbonitrile]: the IC50 came out at 80 nM.

Regarding `Cc1cc(C)c2[nH]ccc2c1C(C)(N)c1nc2cc(C#N)ccc2[nH]1` (racemic) [101-E b) (−), (−)-2-(1-amino-1-(5,7-dimethyl-1H-indol-4-yl)ethyl)benzo[d]imidazole-5-carbonitrile], the IC50 came out at 50 nM.

For `COc1cc(C)c2[nH]ccc2c1C(C)(O)c1nc2cc(C#N)ccc2o1` (racemic) [126-C a), (±)-2-(1-hydroxy-1-(5-methoxy-7-methyl-1H-indol-4-yl)ethyl)benzo[d]oxazole-5-carbonitrile], the IC50 was 8 nM.

Take `COc1cc(C)c2[nH]ccc2c1C(C)(OC)c1nc2cc(C#N)ccc2o1` (racemic) [127-B a), (±)-2-(1-methoxy-1-(5-methoxy-7-methyl-1H-indol-4-yl)ethyl)benzo[d]oxazole-5-carbonitrile]: the IC50 was 330 nM.

For the compound `CNC(c1nc2cc(C#N)ccc2[nH]1)c1c(OC(F)F)cc(C)c2[nH]ccc12` (racemic) [Example 4, (±)-2-((5-(Difluoromethoxy)-7-methyl-1H-indol-4-yl)(methylamino)methyl)-1H-benzo[d]imidazole-5-carbonitrile], the IC50 came out at 570 nM.

On to `Cc1cc(S(C)(=O)=O)c(C(O)c2nc3cc(C#N)ccc3[nH]2)c2cc[nH]c12` (racemic) [Example 10-C, (±)-2-(Hydroxy(7-methyl-5-(methylsulfonyl)-1H-indol-4-yl)methyl)-1H-benzo[d]imidazole-5-carbonitrile], for which the IC50 was 1360 nM.

Take `COCC(C)Oc1cc(C)c2[nH]ccc2c1Cc1nc2cc(C#N)ccc2[nH]1` (racemic) [Example 23, (±)-2-((5-((1-Methoxypropan-2-yl)oxy)-7-methyl-1H-indol-4-yl)methyl)-1H-benzo[d]imidazole-5-carbonitrile]: the IC50 turned out to be 2650 nM.

Consider `Cc1cc(OCC(N)=O)c(C(C)(O)c2nc3cc(C#N)ccc3[nH]2)c2cc[nH]c12` (racemic) [Example 31-C, (±)-2-((4-(1-(5-Cyano-1H-benzo[d]imidazol-2-yl)-1-hydroxyethyl)-7-methyl-1H-indol-5-yl)oxy)acetamide], for which the IC50 came to 430 nM.

As for `Cc1cc(OCC(=O)O)c(C(C)(O)c2nc3cc(C#N)ccc3[nH]2)c2cc[nH]c12` (racemic) [Example 32-B, (±)-2-((4-(1-(5-Cyano-1H-benzo[d]imidazol-2-yl)-1-hydroxyethyl)-7-methyl-1H-indol-5-yl)oxy)acetic acid], the IC50 is 1410 nM.

With `Cc1cc(OC(C)C)c(C(N)(c2nc3cc(C#N)ccc3[nH]2)C(F)(F)F)c2cc[nH]c12` (racemic) [Example 37, (±)-2-(1-Amino-2,2,2-trifluoro-1-(5-isopropoxy-7-methyl-1H-indol-4-yl)ethyl)-1H-benzo[d]imidazole-5-carbonitrile], the IC50 was 30 nM.

For the compound `COc1cc(C)c2[nH]ccc2c1C(c1nc2cc(C#N)ccc2[nH]1)(N(C)C)C(F)(F)F` (racemic) [Example 38-C, (±)-2-(1-(Dimethylamino)-2,2,2-trifluoro-1-(5-methoxy-7-methyl-1H-indol-4-yl)ethyl)-1H-benzo[d]imidazole-5-carbonitrile], the IC50 came to 490 nM.

Consider `Cc1cc(OC(C)C)c(C(N)c2nc3cc(C#N)ccc3[nH]2)c2cc[nH]c12` (racemic) [Example 40, (±)-2-(Amino(5-isopropoxy-7-methyl-1H-indol-4-yl)methyl)-1H-benzo[d]imidazole-5-carbonitrile], for which the IC50 was determined as 50 nM.

Take `COc1cc(C)c2[nH]ccc2c1C(c1nc2cc(C#N)ccc2[nH]1)N(C)C` (racemic) [Example 43-C, (±)-2-((Dimethylamino)(5-methoxy-7-methyl-1H-indol-4-yl)methyl)-1H-benzo[d]imidazole-5-carbonitrile]: the IC50 amounted to 1180 nM.

Regarding `CCOc1cc(C)c2[nH]ccc2c1C(CN)c1nc2cc(C#N)ccc2[nH]1` (racemic) [Example 44-C, (±)-2-(2-amino-1-(5-ethoxy-7-methyl-1H-indol-4-yl)ethyl)-1H-benzo[d]imidazole-5-carbonitrile], the IC50 worked out at 870 nM.

In the case of `CCOc1cc(C)c2[nH]ccc2c1C(CNC)c1nc2cc(C#N)ccc2[nH]1` (racemic) [Example 45, (±)-2-(1-(5-ethoxy-7-methyl-1H-indol-4-yl)-2-(methylamino)ethyl)-1H-benzo[d]imidazole-5-carbonitrile], the IC50 came to 1040 nM.

`COC(c1nc2cc(C#N)ccc2[nH]1)c1c(C)cc(C)c2[nH]ccc12` (racemic) [Example 68-B, (±)-2-((5,7-Dimethyl-1H-indol-4-yl)(methoxy)methyl)-1H-benzo[d]imidazole-5-carbonitrile]: the IC50 came out at 200 nM.

On to `Cc1cc(C)c2[nH]ccc2c1C(OCC(=O)O)c1nc2cc(C#N)ccc2[nH]1` (racemic) [Example 69, (±)-2-((5-cyano-1H-benzo[d]imidazol-2-yl)(5,7-dimethyl-1H-indol-4-yl)methoxy)acetic acid], for which the IC50 was determined as 3630 nM.

Regarding `CCOC(c1nc2cc(C#N)ccc2[nH]1)c1c(C)cc(C)c2[nH]ccc12` (racemic) [Example 73, (±)-2-((5,7-Dimethyl-1H-indol-4-yl)(ethoxy)methyl)-1H-benzo[d]imidazole-5-carbonitrile], the concentration for half-maximal inhibition (IC50) is 1270 nM.

Turning to `COCCOC(c1nc2cc(C#N)ccc2[nH]1)c1c(C)cc(C)c2[nH]ccc12` (racemic) [Example 74, (±)-2-((5,7-Dimethyl-1H-indol-4-yl)(2-methoxyethoxy)methyl)benzo[d]imidazole-5-carbonitrile], the IC50 was 1870 nM.

Take `Cc1cc(C)c2[nH]ccc2c1C(C)c1nc2cc(C#N)ccc2[nH]1` (racemic) [Example 75-D, (±)-2-(1-(5,7-Dimethyl-1H-indol-4-yl)ethyl)-1H-benzo[d]imidazole-5-carbonitrile]: the IC50 worked out at 470 nM.

In the case of `Cc1cc2c(c3cc[nH]c13)C(c1nc3cc(C#N)ccc3[nH]1)(C(F)(F)F)OC2=O` (racemic) [Example 81-D, (±)-2-(5-Methyl-3-oxo-1-(trifluoromethyl)-3,6-dihydro-1H-furo[3,4-e]indol-1-yl)-1H-benzo[d]imidazole-5-carbonitrile], the IC50 was found to be 2930 nM.

For the compound `Cc1cc(CO)c(C(O)(c2nc3cc(C#N)ccc3[nH]2)C(F)(F)F)c2cc[nH]c12` (racemic) [Example 81-E, (±)-2-(2,2,2-Trifluoro-1-hydroxy-1-(5-(hydroxymethyl)-7-methyl-1H-indol-4-yl)ethyl)-1H-benzo[d]imidazole-5-carbonitrile], the IC50 amounted to 1640 nM.
